Each structure is given as a SMILES string.

As a reminder, the melting point is the temperature, or range, at which the solid turns liquid.

`CN(C)c1ccc(C=C2C(=O)NN=C2Cc2ccccc2)cc1` [Example 358, 3-Benzyl-4-[(4-dimethylaminophenyl)methylene]-2-pyrazolin-5-one] registered a melting point of 253 to 255 °C.
In the case of `CC(C)OC1=NNC(=O)C1=Cc1ccc(N(C)C)cc1` [Example 359, 4-[(4-Dimethylaminophenyl)methylene]-3-isopropoxy-2-pyrazolin-5-one], the melting point lay in the range of 197 to 198 °C.
With `CN(C)c1ccc(C=C2C(=O)NN=C2CCc2ccccc2)cc1` [Example 360, 4-[(4-Dimethylaminophenyl)methylene]-3-phenylethyl-2-pyrazolin-5-one], the melting point fell in the range of 224 to 225 °C.
Turning to `CN(C)c1ccc(C=C2C(=O)NN=C2C2CC2)cc1` [Example 361, 3-Cyclopropyl-4-[(4-dimethylaminophenyl)methylene]-2-pyrazolin-5-one], the melting point is 280 to 289 °C.
The figure for `Cc1n[nH]cc1C=C1C(=O)NN=C1OC(C)C` [Example 362, 3-Isopropoxy-4-[(3-methylpyrazol-4-yl)methylene]-2-pyrazolin-5-one] is 228 to 230 °C; for `Cc1n[nH]cc1C=C1C(=O)NN=C1C1CC1` [Example 363, 3-Cyclopropyl-4-[(3-methylpyrazol-4-yl)methylene]-2-pyrazolin-5-one] it is 265 to 267 °C; for `CC(C)OC1=NNC(=O)C1=Cc1ncc[nH]1` [Example 364, 4-[(Imidazol-2-yl)methylene]-3-isopropoxy-2-pyrazolin-5-one] it is 212 to 214 °C.
`O=C1NN=C(C2CC2)C1=Cc1ncc[nH]1` [Example 365, 3-Cyclopropyl-4-[(imidazol-2-yl)methylene]-2-pyrazolin-5-one] showed a melting point of 264 to 266 °C.
The compound `CC(C)OC1=NNC(=O)C1=Cc1c[nH]cn1` [Example 366, 4-[(Imidazol-4-yl)methylene]-3-isopropoxy-2-pyrazolin-5-one] had a melting point of 259 to 260 °C.
Compound `O=C1NN=C(C2CC2)C1=Cc1cccs1` [Example 367, 3-Cyclopropyl-4-[(thien-2-yl)methylene]-2-pyrazolin-5-one] displayed a melting point of 275 to 277 °C.
For `CC(C)C1=NN(C)C(=O)C1=Cc1c[nH]c2ccccc12` [Example 368, 4[(Indol-3-yl)methylene]-3-isopropyl-1-methyl-2-pyrazolin-5-one] the value was 241 to 242 °C; for `CC(C)OC1=NNC(=O)C1=Cc1cc[nH]c1` [Example 369, 3-Isopropoxy-4-[(pyrrol-3-yl)methylene]-2-pyrazolin-5-one], 252 to 255 °C; for `CC(C)OC1=NNC(=O)C1=Cc1ccc(O)c2ncccc12` [Example 370, 4-[(8-Hydroxyquinolin-5-yl)methylene]-3-isopropoxy-2-pyrazolin-5-one], greater than 300 °C.

For the origin of these results see patent US7060822B1, “2-pyrazolin-5-ones” (Abbott GmbH & Co. KG, priority 1999, dated 2006).
